Assay results as given in patent US20250319032A1, “PHARMACEUTICAL COMPOSITIONS OF RIBOCICLIB” (Novartis AG, priority 2024, published 2025).

Key:
[1] = DMP433 (N-nitroso-ribociclib) content in ribociclib base (B10) and ribociclib succinate (B12, drug substance) batches and process experiments, LC-MS/MS or HPLC-HRMS; assay type: physicochemical; conditions: for DMP433 [ppm] LOQ (0.0625 ppm) / DMP433 [ppm], result in brackets (extrapolation, estimate of actual value below LOQ): ribociclib base (LEE011 B10); for DMP433 in B10: starting material of 5 kg technical batches
Text: The method of testing for the presence and/or total amount of nitrosamines (such as the presence and/or total amount of N-nitroso-ribociclib in free or salt form) that is used in the methods of the invention may be any method which allows for the detection of nitrosamines in a composition. For example, the method may involve the Griess test described above. In such a method, the nitrosamines may be first denitrosated (e.g., by photolysis) to form a nitrite, which is then detected in the Griess test. Alternatively, the method may include high performance liquid chromatography (HPLC)- and/or gas chromatography (GC)-mass spectroscopy. An example of a method of testing for the presence and amount of nitrosamines (namely N-nitroso-ribociclib) is provided herein as Example 14. […]
2.7. […] Dissolve the substance using vortex and fill to volume with solvent (50% MeOH). • 3. Filter through 0.2 μm PVDF (polyvinylidene difluoride) or PTFE (polytetrafluoroethylene) filter into a HPLC amber vial, discard the first 0.5 ml.
A calibration curve for DMP433 is created, using calibration standard solutions L1-L6, and expressing the relationship between responses (peak areas) and standard concentrations (ng/ml). For L1, the average of 6 injections is used. Linear regression is weighed with 1/amount. […]

[2] = Nitrite content (ion chromatography; LC-FLD with DAN derivatisation; Griess test) in drug substance, intermediates, reagents, solvents, filters, excipients; assay type: physicochemical; conditions: ribociclib succinate drug substance batches at release; manufacturer Raybow - DS05
Text: The method of testing for the presence and/or total amount of nitrites that is used in the methods of the invention may be any method which allows for the detection and/or quantitation of nitrites in a composition. For example, the method may be the Griess test. The Griess test allows for the detection and analysis of nitrite by the formation of a red-pink colour upon treatment of a nitrite-containing sample with the Griess reagent. The Griess reagent consists of two components in an acidic solution: an aniline derivative and a coupling agent. The most common arrangements use sulfanilamide and N-(1-naphthyl)ethylenediamine. For example 0.2% N-(1-naphthyl)ethylenediamine dihydrochloride and 2% sulfanilamide in 5% phosphoric acid may be used as a Griess reagent. Other aniline derivatives that may be used in a Griess reagent include sulfanilic acid, nitroaniline, and p-aminoacetophenone.
The Griess test involves two subsequent reactions, as shown in the scheme below. When the aniline derivative (e.g., sulfanilamide) is added, the nitrite ion reacts with it in the Griess diazotization reaction to form a diazonium salt, which then reacts with N-(1-naphthyl)ethylenediamine in an azo-coupling reaction, forming a pink-red azo-dye. Using a spectrophotometer, the nitrite concentration can then be quantitatively detected.
Additionally purified water; e.g. Milli Q • 2.
• 10 mM KH2PO4 Weigh accurately about 1.361 g of KH2PO4 into a 1 L volumetric flask, dissolve it in approximately 950 mL of additionally purified water and adjust the pH to 8.0 (with 2.7 M NaOH). Make up to the mark with additionally purified water. • 0.62 M HCl Add a few millilitres (e.g. 20 mL) of additionally purified water to a 200 mL volumetric flask, add 10.280 mL of concentrated HCl, mix and make up to the mark with additionally purified water. • 2.7 M NaOH Weigh accurately about 1.092 g of NaOH pellets into a 10 mL volumetric flask and dissolve it in additionally purified water. Cool to room temperature and make up to the mark with the same solvent. • Reagent DAN Weigh accurately about 5 mg of 2,3-diaminophthalene into a 100 mL volumetric flask and dissolve it with the solvent (methanol/water 1:1 (v/v)). Dilute up to the mark and ensure visual full dissolution. Use an amberglass flask. • Mobile phase A Mix 950 mL of 10 mM KH2PO4 solution (pH=8) and add 50 mL methanol. • Mobile phase B Methanol. • Solvent Methanol/water 1:1 (v/v), e.g. mix 2000 mL of additionally purified water and 2000 mL methanol.
• Instrument: HPLC with FLR detector; e.g. Waters Arc or equivalent • Column: C18 50×4.6 mm, 2.5 μm, e.g. XBridge C18 2.5 μm, 4.650 mm or equivalent
• Notes It is recommended to wear additional protective equipment (face mask and gloves) during weighing. • It is recommended to wash the column with 50% methanol after the analysis (example of preparation: mix 500 mL methanol and 500 m1 of additionally purified water). • It is recommended to rinse the injector with solvent after each injection. • All glassware and tools should be rinsed with additionally purified water before use. It is not recommended to leave the solutions open for a longer time before measurement. • Blank solution 1 Transfer 1 mL of solvent into a HPLC vial and perform derivatization as described below. • Blank solution 2 Transfer 10 mL of solvent into a single use glass vial and mix it on a magnetic stirrer for 30 min. Transfer the solution into a 5 mL centrifuge tube and centrifuge for 10 min at 12000 rpm. […] Fill up to the mark with solvent and mix. • (Cnitrite≈0.0005 mg/mL) • Comparison solution Transfer 10 mL of nitrite stock solution into a 500 mL volumetric flask. • (2 parallels) Fill up to the mark with solvent and mix. • Transfer 1 mL solution into a HPLC vial and perform the derivatization as described below. • (Cnitrite≈100 ppb) • Sample solution Accurately weigh about 1000 mg of the sample into a glass vial for single use and add 10 mL of solvent.

CN(C)C(=O)c1cc2cnc(Nc3ccc(N4CCNCC4)cn3)nc2n1C1CCCC1.O=C(O)CCC(=O)O [Batch B699003AA]
DMP433 content (corrected value) at release ([1]; drug substance DS06 used for tablet core experiments and binary mixtures): 0.655 ppm

CN(C)C(=O)c1cc2cnc(Nc3ccc(N4CCNCC4)cn3)nc2n1C1CCCC1 [Batch B704194]
DMP433 [ppm] LOQ (0.0625 ppm) [1]: LOQ
DMP433 [ppm], result in brackets (extrapolation, estimate of actual value below LOQ) [1]: 0.005 ppm

CN(C)C(=O)c1cc2cnc(Nc3ccc(N4CCNCC4)cn3)nc2n1C1CCCC1 [Batch B704196]
DMP433 [ppm] LOQ (0.0625 ppm) [1]: LOQ
DMP433 [ppm], result in brackets (extrapolation, estimate of actual value below LOQ) [1]: 0.019 ppm

CN(C)C(=O)c1cc2cnc(Nc3ccc(N4CCNCC4)cn3)nc2n1C1CCCC1 [Batch B705465]
DMP433 [ppm] LOQ (0.0625 ppm) [1]: LOQ
DMP433 [ppm], result in brackets (extrapolation, estimate of actual value below LOQ) [1]: 0.037 ppm

CN(C)C(=O)c1cc2cnc(Nc3ccc(N4CCNCC4)cn3)nc2n1C1CCCC1 [Batch B0705466]
DMP433 [ppm] LOQ (0.0625 ppm) [1]: LOQ
DMP433 [ppm], result in brackets (extrapolation, estimate of actual value below LOQ) [1]: 0.043 ppm

CN(C)C(=O)c1cc2cnc(Nc3ccc(N4CCNCC4)cn3)nc2n1C1CCCC1 [Batch B0705467]
DMP433 [ppm] LOQ (0.0625 ppm) [1]: LOQ
DMP433 [ppm], result in brackets (extrapolation, estimate of actual value below LOQ) [1]: 0.035 ppm

CN(C)C(=O)c1cc2cnc(Nc3ccc(N4CCNCC4)cn3)nc2n1C1CCCC1.O=C(O)CCC(=O)O [Batch B0705468]
DMP433 [ppm] LOQ (0.0625 ppm) [1]: LOQ
DMP433 [ppm], result in brackets (extrapolation, estimate of actual value below LOQ) [1]: 0.030 ppm

CN(C)C(=O)c1cc2cnc(Nc3ccc(N4CCNCC4)cn3)nc2n1C1CCCC1.O=C(O)CCC(=O)O [Batch B728969]
N-nitroso-ribociclib ([1]; starting material used for technical batch NV1900): 0.21 ppm

CN(C)C(=O)c1cc2cnc(Nc3ccc(N4CCNCC4)cn3)nc2n1C1CCCC1.O=C(O)CCC(=O)O [LEE011-haenepa1-012]
DMP433 in LEE011-B12 ([1]; washing of isolated ribociclib succinate, laboratory scale (conditions per experiment)): 746 ppb

CN(C)C(=O)c1cc2cnc(Nc3ccc(N4CCNCC4)cn3)nc2n1C1CCCC1.O=C(O)CCC(=O)O [LEE011-haenepa1-013]
DMP433 in LEE011-B12 ([1]; re-slurry of LEE011-B12 in iPrOH at 10° C.): 64 ppm

CN(C)C(=O)c1cc2cnc(Nc3ccc(N4CCNCC4)cn3)nc2n1C1CCCC1.O=C(O)CCC(=O)O [RIBOCICLIB SUCCINATE 834325A015]
Nitrite NAT enhanced sample prep. (ppm) [2]: 0.1 ppm

CN(C)C(=O)c1cc2cnc(Nc3ccc(N4CCNCC4)cn3)nc2n1C1CCCC1.O=C(O)CCC(=O)O [RIBOCICLIB SUCCINATE 834325A016]
Nitrite NAT enhanced sample prep. (ppm) [2]: 0.1 ppm

CN(C)C(=O)c1cc2cnc(Nc3ccc(N4CCNCC4)cn3)nc2n1C1CCCC1.O=C(O)CCC(=O)O [Technical batch 1]
DMP433 in B10 [1]: 55.8 ppb

CN(C)C(=O)c1cc2cnc(Nc3ccc(N4CCNCC4)cn3)nc2n1C1CCCC1.O=C(O)CCC(=O)O [Technical batch 2]
DMP433 in B10 [1]: 55.8 ppb
reduction of the amount of DMP433 formed by use of distilled iPrOH ([1]; technical batch 2 (distilled) vs technical batch 1 (non-distilled)): approx. 50%
